# Laboratory results: publication PMC3149978 (Clinical cancer research : an official journal of the …, 2011)
# Where two headings read alike, the source gives them in different places.
# Key:
# [1] = human, in vivo
# [2] = Extended pharmacokinetic sampling after the first dose
# [3] = in vivo, po
# [4] = system: pediatric patients with refractory solid tumors; test: Phase I dose escalation and toxicity evaluation; format: in vivo, human
# [5] = clinical; settings: human, in vivo, 20 mg/m2
# [6] = Steady-state trough plasma concentrations in cycle 1
# [7] = system: Circulating endothelial cells (CECs) and endothelial progenitor cells (CEPs); test: Circulating endothelial cells and progenitor cells by flow cytometry; format: in vivo, human; settings: 11 patients with paired baseline and day 28 samples
# [8] = system: monocyte counts; test: Absolute monocyte counts, day 1 vs day 28; format: in vivo, human
# [9] = system: refractory solid tumors; test: Tumor response evaluated by RECIST; format: in vivo, human
# [10] = system: placental growth factor (PlGF); test: Plasma angiogenic biomarker ELISA, baseline vs day 28 of cycle 1; format: in vivo, human; settings: baseline to day 28 of cycle 1; 12 patients; p = 0.0003
# [11] = system: VEGF; test: as above; format: in vivo, human; settings: baseline to day 28 of cycle 1; 12 patients; p = 0.002
# [12] = system: adult patients; settings: cited from earlier work
# [13] = system: stromal cell -derived factor-1 (SDF-1); test: Plasma angiogenic biomarker ELISA, baseline vs day 28 of cycle 1; format: in vivo, human; settings: baseline to day 28 of cycle 1; 12 patients
# [14] = system: endoglin; test: as above; format: in vivo, human; settings: baseline to day 28 of cycle 1; 12 patients; p = 0.01
# [15] = dose level 15 g/m^2 (so in the source), N = 8
# [16] = 17 patients with decreases, day 1 to day 28
smiles,measurement,setting,value
CCNCCNC(=O)c1c(C)[nH]c(/C=C2\C(=O)Nc3ccc(F)cc32)c1C [SU12662],"Tmax, Max",[1],48.7 h
same,"Tmax, Median",[1],8.0 h
same,"Tmax, Min",[1],4.0 h
same,Cmax,[1]; 20 mg/m2,5.3 ng/mL
same,Tmax,[1]; 20 mg/m2,8.0 h
same,AR (accumulation ratio = Css/C24h),"[2]; dose level 20 mg/m^2, N = 1",4.2
same,"AR (accumulation ratio = Css/C24h), Max",[2]; [15],11.1
same,"AR (accumulation ratio = Css/C24h), Median",[2]; [15],6.4
same,"AR (accumulation ratio = Css/C24h), Min",[2]; [15],3.4
same,steady state plasma concentrations reached by,[3],≤ 7 days
CCN(CC)CCNC(=O)c1c(C)[nH]c(/C=C2\C(=O)Nc3ccc(F)cc32)c1C [Sunitinib],cardiac toxicity,"[4]; Patient 2, 15 mg/m^2, Day 28, Cycle 1, doxorubicin 367 mg/m^2, prior cardiac radiation",Symptomatic diastolic and systolic dysfunction; transient ischemic changes on EKG
same,maximum tolerated dose,[4]; children without prior anthracycline exposure or radiation therapy involving a cardiac field,15 mg/m^2
same,ALT elevation G1,"[4]; human, in vivo",11%
same,Hypophosphatemia G1,"[4]; human, in vivo",11%
same,Leukopenia G1,"[4]; human, in vivo",40%
same,Thrombocytopenia G1,"[4]; human, in vivo",40%
same,ALT elevation G1,"[4]; human, in vivo, 1 cycle",17%
same,AST elevation G1,"[4]; human, in vivo, 1 cycle",33%
same,Anemia G1,"[4]; human, in vivo, 1 cycle",25%
same,Anorexia G2,"[4]; human, in vivo, 1 cycle",17%
same,Diarrhea G1,"[4]; human, in vivo, 1 cycle",33%
same,Hypoalbuminemia G1,"[4]; human, in vivo, 1 cycle",25%
same,Hypocalcemia G1,"[4]; human, in vivo, 1 cycle",25%
same,patients who developed hypothyroidism (≤ grade 2),"[4]; human, in vivo, 1 cycle",Three of 23
same,ALT elevation G2,"[4]; human, in vivo, 42 days",11%
same,Anorexia G1,"[4]; human, in vivo, 42 days",11%
same,CNS hemorrhage G4,"[4]; human, in vivo, 42 days",11%
same,Constipation G1,"[4]; human, in vivo, 42 days",11%
same,Cranial neuropathy G4,"[4]; human, in vivo, 42 days",11%
same,Decreased serum bicarbonate G1,"[4]; human, in vivo, 42 days",11%
same,Dehydration G1,"[4]; human, in vivo, 42 days",11%
same,Diarrhea G1,"[4]; human, in vivo, 42 days",11%
same,Diarrhea G2,"[4]; human, in vivo, 42 days",11%
same,Epistaxis G1,"[4]; human, in vivo, 42 days",11%
same,Eye swelling G1,"[4]; human, in vivo, 42 days",11%
same,Headache G1,"[4]; human, in vivo, 42 days",11%
same,Hypernatremia G1,"[4]; human, in vivo, 42 days",11%
same,Hypertension G1,"[4]; human, in vivo, 42 days",11%
same,Hyperuricemia G1,"[4]; human, in vivo, 42 days",11%
same,Hyperuricemia G4,"[4]; human, in vivo, 42 days",11%
same,Hypoalbuminemia G1,"[4]; human, in vivo, 42 days",11%
same,Hypomagnesemia G1,"[4]; human, in vivo, 42 days",11%
same,Hypothyroidism G1,"[4]; human, in vivo, 42 days",11%
same,Left ventricular systolic dysfunction G2,"[4]; human, in vivo, 42 days",17%
same,Leukopenia G1,"[4]; human, in vivo, 42 days",33%
same,Leukopenia G2,"[4]; human, in vivo, 42 days",17%
same,Leukopenia G3,"[4]; human, in vivo, 42 days",25%
same,Lipase elevation G1,"[4]; human, in vivo, 42 days",11%
same,Lymphopenia G1,"[4]; human, in vivo, 42 days",17%
same,Lymphopenia G3,"[4]; human, in vivo, 42 days",17%
same,Muscle or joint pain G1,"[4]; human, in vivo, 42 days",11%
same,Muscle or joint pain G2,"[4]; human, in vivo, 42 days",11%
same,Neutropenia G2,"[4]; human, in vivo, 42 days",17%
same,Neutropenia G3,"[4]; human, in vivo, 42 days",33%
same,Thrombocytopenia G1,"[4]; human, in vivo, 42 days",42%
same,Thrombocytopenia G2,"[4]; human, in vivo, 42 days",25%
same,Weight loss G2,"[4]; human, in vivo, 42 days",17%
same,cardiac dysfunction,[4]; in vivo,No cardiac dysfunction was observed
same,changes in hair color and texture,[4]; in vivo,not reported
same,growth plate thickening,[4]; in vivo,did not demonstrate any growth plate thickening
same,hypertension,[4]; in vivo,rarely reported
same,patients who developed hypothyroidism (≤ grade 2),[4]; in vivo,Two patients
same,maximum tolerated dose,"[4]; patients without prior anthracycline or cardiac radiation exposure, once daily for 28 days followed by a 14-day break",15 mg/m^2/day
same,AUC0-48h,[1],698 ng·h/L
same,"AUC0-48h, Median",[1],492 ng·h/L
same,AUC0-∞,[1],879 ng·h/L
same,"AUC0-∞, Median",[1],747 ng·h/L
same,"Tmax, Max",[1],48.0 h
same,"Tmax, Min",[1],2.0 h
same,median peak plasma concentration,[1],16.8 ng/mL
same,"peak plasma concentration, range",[1],9.5 to 61.4 ng/mL
same,time at which median peak plasma concentration was achieved,[1],7 h
same,Cmax,[5],26.3 ng/mL
same,"Css, Max",[6]; 15 mg/m^2 dose level,57.9 ng/mL
same,"Css, Median",[6]; 15 mg/m^2 dose level,28.0 ng/mL
same,"Css, Min",[6]; 15 mg/m^2 dose level,13.2 ng/mL
same,"Css, Max",[6]; 20 mg/m^2 dose level,65.0 ng/mL
same,"Css, Median",[6]; 20 mg/m^2 dose level,36.5 ng/mL
same,"Css, Min",[6]; 20 mg/m^2 dose level,28.2 ng/mL
same,Day 21 Css sunitinib,"[6]; Patient 1 with cardiac toxicity, 20 mg/m^2",40 ng/mL
same,Day 21 Css sunitinib,"[6]; Patient 2 with cardiac toxicity, 15 mg/m^2",18 ng/mL
same,steady state plasma concentrations reached by,"[6]; once daily oral dosing, cycle 1",≤ 7 days
same,change in totals and subsets of CECs and CEPs,[7],did not reliably change
same,"decrease in AMC, range",[8]; [16],18 to 1253 µL⁻¹
same,median decrease in AMC,[8]; [16],117 µL⁻¹
same,patients with decreases in absolute monocyte count (AMC),[8]; 18 patients with paired day 1 and day 28 counts,17
same,objective responses,[9]; 17 patients evaluable for response,No objective responses were observed
same,patients with best response of stable disease,"[9]; diffuse pontine glioma (2 cycles), osteosarcoma (4 cycles), epithelioid sarcoma (9 cycles), ganglioglioma (9 cycles)",Four patients
same,123I-meta-iodobenzylguanidine scan finding,"[9]; one patient with neuroblastoma, one cycle at 20 mg/m^2, persistent bone marrow disease",resolution of the disease noted at baseline
same,change in plasma placental growth factor concentration,[10],increased significantly
same,change in plasma VEGF concentration,[11],increased significantly
same,incidence of grade 3 or symptomatic congestive heart failure,"[12]; adult patients treated with sunitinib, ref [30]-[32]",7-15%
same,cases requiring dose reductions,"[12]; adults treated with sunitinib, ref [5], [6], [24], [25]",11-50%
same,change in plasma SDF-1 concentration,[13],did not change in a consistent manner
same,change in plasma endoglin concentration,[14],decreased significantly
